Data published in EP4725957A1, “GROUP OF CYCLIC ALKALINE LIPOPEPTIDE COMPOUNDS, AND PREPARATION METHOD THEREFOR AND USE THEREOF” (Institute of Medicinal Biotechnology, Chinese Academy of …, priority 2023, dated 2024).
≈ marks a conversion by molar mass, not a printed value. Bridge positions count the residues as written; N and C are the ends. Square brackets hold non-standard residues; d marks the D form. Peptide text beside a SMILES is read from it. * marks the point of attachment. Dab(CH2SO3H) = N[C@@H](CCNCS(=O)(=O)O)C(=O)O; Heptanoyl(6-Me) = CC(C)CCCCC(=O)*; Sulfomethyl = O=S(=O)(O)C*; dOrn = NCCC[C@@H](N)C(=O)O; Nonanoyl = CCCCCCCCC(=O)*; X1 = CC[C@H](C)CCCCC(=O)*; Heptanoyl = CCCCCCC(=O)*; Orn = NCCC[C@H](N)C(=O)O; Dab = NCC[C@H](N)C(=O)O; Dap = NC[C@H](N)C(=O)O

Columns and labels:
Type in all cases: cell-based
[1] = tested on: Escherichia coli ATCC BAA-2340 (KPC); settings: ATCC BAA-2340
Outline: (§1)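 Minimal inhibitory concentrations are measured following CLSI microdilution guidance in MH broth. Test concentrations run from 64 down to 0.03 mg/L in doubling steps, with a final bacterial load of (2-4) × 10^5 CFU/mL and 16-20 h incubation at 35-37°C.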

[2] = tested on: Acinetobacter baumannii NCTC 13304 (OXA-27); settings: NCTC 13304
Outline: as §1

[3] = tested on: Escherichia coli ATCC BAA-2523; settings: ATCC BAA-2523
Outline: as §1

[4] = tested on: Pseudomonas aeruginosa PAE19-3; settings: PAE19-3
Outline: as §1

[5] = tested on: Klebsiella pneumoniae ATCC BAA-1705 (KPC); settings: ATCC BAA-1705
Outline: as §1

[6] = tested on: Klebsiella pneumoniae KPN+19-15; settings: KPN+19-15
Outline: as §1

[7] = tested on: Pseudomonas aeruginosa ATCC 27853; settings: ATCC 27853
Outline: as §1

[8] = tested on: Acinetobacter baumannii ABA19-1; settings: ABA19-1
Outline: as §1

[9] = Nephrotoxicity assay: in vitro cytotoxicity of HK-2 cells by CCK-8 assay; settings: human, HK-2 cells (human renal), 72 h incubation with drug-containing medium
Outline: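 HK-2 human renal cells in RPMI-1640 with 10% FBS were exposed to compounds at final 12.5–500 µg/mL for 72 h, then CCK-8 for 3 h and OD450 read. Viability was normalised to drug-free wells; IC50 came from logarithmic regression over three repeats, with polymyxin B as positive drug.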

Row | Structure (SMILES) | MIC [1] [µg/mL] | MIC [2] [µg/mL] | MIC [3] [µg/mL] | MIC [4] [µg/mL] | MIC [5] [µg/mL] | MIC [6] [µg/mL] | MIC [7] [µg/mL] | MIC [8] [µg/mL] | IC50 at 72 h [9] [µg/mL]
1 | CCCCCCCCC(=O)N[C@@H](CCN)C(=O)N[C@H](C(=O)N[C@H](CCCN)C(=O)N[C@H]1CCNC(=O)[C@H]([C@@H](C)O)NC(=O)[C@H](CCN)NC(=O)[C@H](CCN)NC(=O)[C@H]([C@@H](C)O)NC(=O)[C@@H](Cc2ccccc2)NC(=O)[C@H](CCN)NC1=O)[C@@H](C)O [Compound 25, Nonanoyl-Dab-Thr-D-Orn-ring(4-10)[Dab-Dab-D-Phe-Thr-Dab-Dab-Thr]] (Nonanoyl-[Dab]T[dOrn][Dab][Dab][dF]T[Dab][Dab]T; lactam 4-C) | ≤0.03 | 0.06 (≈ 0.0498 µM) | ≤0.03 | 2 (≈ 1.66 µM) | 0.06 (≈ 0.0498 µM) | 0.125 (≈ 0.104 µM) | 0.5 (≈ 0.415 µM) | 0.125 (≈ 0.104 µM) | 338 ± 15.1 (≈ 280 µM)
2 | CC[C@H](C)CCCCC(=O)N[C@@H](CCCN)C(=O)N[C@H](C(=O)N[C@H](CO)C(=O)N[C@H]1CCNC(=O)[C@H]([C@@H](C)O)NC(=O)[C@H](CCN)NC(=O)[C@H](CCN)NC(=O)[C@H]([C@@H](C)O)NC(=O)[C@@H](Cc2ccccc2)NC(=O)[C@H](CCN)NC1=O)[C@@H](C)O [Compound 56, (S)-6-methyloctanoyl-Orn-Thr-D-Ser-ring(4-10)[Dab-Dab-D-Phe-Thr-Dab-Dab-Thr]] (X1-[Orn]T[dS][Dab][Dab][dF]T[Dab][Dab]T; lactam 4-C) | 0.125 (≈ 0.105 µM) | 0.25 (≈ 0.21 µM) | 0.125 (≈ 0.105 µM) | 4 (≈ 3.35 µM) | 0.25 (≈ 0.21 µM) | 0.5 (≈ 0.419 µM) | 64 (≈ 53.7 µM) | 0.25 (≈ 0.21 µM) | > 500
3 | CC(C)CCCCC(=O)N[C@@H](CCN)C(=O)N[C@H](C(=O)N[C@H](CO)C(=O)N[C@H]1CCNC(=O)[C@H]([C@@H](C)O)NC(=O)[C@H](CCN)NC(=O)[C@H](CCN)NC(=O)[C@H]([C@@H](C)OCS(=O)(=O)O)NC(=O)[C@@H](Cc2ccccc2)NC(=O)[C@H](CCN)NC1=O)[C@@H](C)O [Compound 105, 6-methylheptanoyl-Dab-Thr-D-Ser-ring(4-10)[Dab-Dab-D-Phe-Thr(CH2SO3H)-Dab-Dab-Thr]] ({Heptanoyl(6-Me)}-[Dab]T[dS][Dab][Dab][dF]T(Sulfomethyl)[Dab][Dab]T; lactam 4-C) | 0.03 (≈ 0.0238 µM) | 0.06 (≈ 0.0477 µM) | 0.03 (≈ 0.0238 µM) | 0.25 (≈ 0.199 µM) | 0.125 (≈ 0.0993 µM) | 0.125 (≈ 0.0993 µM) | 0.25 (≈ 0.199 µM) | 0.06 (≈ 0.0477 µM) | > 500
4 | CC(C)CCCCC(=O)N[C@@H](CCN)C(=O)N[C@H](C(=O)N[C@H](CO)C(=O)N[C@H]1CCNC(=O)[C@H]([C@@H](C)O)NC(=O)[C@H](CCN)NC(=O)[C@H](CCN)NC(=O)[C@H]([C@@H](C)O)NC(=O)[C@@H](Cc2ccccc2)NC(=O)[C@H](CCNCS(=O)(=O)O)NC1=O)[C@@H](C)O [Compound 109, 6-methylheptanoyl-Dab-Thr-D-Ser-ring(4-10)[Dab-Dab(CH2SO3H)-D-Phe-Thr-Dab-Dab-Thr]] ({Heptanoyl(6-Me)}-[Dab]T[dS][Dab][Dab(CH2SO3H)][dF]T[Dab][Dab]T; lactam 4-C) | 0.06 (≈ 0.0477 µM) | 0.06 (≈ 0.0477 µM) | 0.06 (≈ 0.0477 µM) | 0.5 (≈ 0.397 µM) | 0.125 (≈ 0.0993 µM) | 0.125 (≈ 0.0993 µM) | 0.25 (≈ 0.199 µM) | 0.25 (≈ 0.199 µM) | > 500
5 | CCCCCCC(=O)N[C@@H](CCN)C(=O)N[C@H](C(=O)N[C@@H](CCCN)C(=O)N[C@H]1CCNC(=O)[C@H]([C@@H](C)O)NC(=O)[C@H](CCN)NC(=O)[C@H](CCN)NC(=O)[C@H]([C@@H](C)O)NC(=O)[C@@H](Cc2ccccc2)NC(=O)[C@H](CCN)NC1=O)[C@@H](C)O [Compound 29, Heptanoyl-Dab-Thr-Orn-ring(4-10)[Dab-Dab-D-Phe-Thr-Dab-Dab-Thr]] (Heptanoyl-[Dab]T[Orn][Dab][Dab][dF]T[Dab][Dab]T; lactam 4-C) | 0.03 (≈ 0.0255 µM) | 0.06 (≈ 0.051 µM) | 0.03 (≈ 0.0255 µM) | 0.5 (≈ 0.425 µM) | 0.03 (≈ 0.0255 µM) | 0.03 (≈ 0.0255 µM) | 0.03 (≈ 0.0255 µM) | 0.125 (≈ 0.106 µM) | > 500
6 | CCCCCCCCC(=O)N[C@@H](CCN)C(=O)N[C@H](C(=O)N[C@@H](CN)C(=O)N[C@H]1CCNC(=O)[C@H]([C@@H](C)O)NC(=O)[C@H](CCN)NC(=O)[C@H](CCN)NC(=O)[C@H](CC(C)C)NC(=O)[C@@H](Cc2ccccc2)NC(=O)[C@H](CCN)NC1=O)[C@@H](C)O [Compound 40, Nonanoyl-Dab-Thr-Dap-ring(4-10)[Dab-Dab-D-Phe-Leu-Dab-Dab-Thr]] (Nonanoyl-[Dab]T[Dap][Dab][Dab][dF]L[Dab][Dab]T; lactam 4-C) | 0.06 (≈ 0.0504 µM) | 0.06 (≈ 0.0504 µM) | 0.06 (≈ 0.0504 µM) | 0.5 (≈ 0.42 µM) | 0.06 (≈ 0.0504 µM) | 0.06 (≈ 0.0504 µM) | 0.06 (≈ 0.0504 µM) | 0.06 (≈ 0.0504 µM) | 158 ± 6.4 (≈ 133 µM)
